Laboratory results as given in ChEMBL document CHEMBL4825753 (J Med Chem, 2021).
Active and inactive are the calls of the source. No cut-off for these calls is given here.

Experiments:
[1] = Photostability of compound assessed as half life; type: physicochemical
[2] = AUC in C57BL/6J mouse at 100 mg/kg, po measured up to 24 hrs; type: ADME, organism-based; parameters: route oral, dose 100 mg/kg, time <=24; details: in vivo
[3] = target: T1, Tyrosine-protein kinase Mer (Homo sapiens, UniProt Q12866); test: Inhibition of MER (unknown origin) by LC-MS analysis
T1 sequence (Q12866 whole entry): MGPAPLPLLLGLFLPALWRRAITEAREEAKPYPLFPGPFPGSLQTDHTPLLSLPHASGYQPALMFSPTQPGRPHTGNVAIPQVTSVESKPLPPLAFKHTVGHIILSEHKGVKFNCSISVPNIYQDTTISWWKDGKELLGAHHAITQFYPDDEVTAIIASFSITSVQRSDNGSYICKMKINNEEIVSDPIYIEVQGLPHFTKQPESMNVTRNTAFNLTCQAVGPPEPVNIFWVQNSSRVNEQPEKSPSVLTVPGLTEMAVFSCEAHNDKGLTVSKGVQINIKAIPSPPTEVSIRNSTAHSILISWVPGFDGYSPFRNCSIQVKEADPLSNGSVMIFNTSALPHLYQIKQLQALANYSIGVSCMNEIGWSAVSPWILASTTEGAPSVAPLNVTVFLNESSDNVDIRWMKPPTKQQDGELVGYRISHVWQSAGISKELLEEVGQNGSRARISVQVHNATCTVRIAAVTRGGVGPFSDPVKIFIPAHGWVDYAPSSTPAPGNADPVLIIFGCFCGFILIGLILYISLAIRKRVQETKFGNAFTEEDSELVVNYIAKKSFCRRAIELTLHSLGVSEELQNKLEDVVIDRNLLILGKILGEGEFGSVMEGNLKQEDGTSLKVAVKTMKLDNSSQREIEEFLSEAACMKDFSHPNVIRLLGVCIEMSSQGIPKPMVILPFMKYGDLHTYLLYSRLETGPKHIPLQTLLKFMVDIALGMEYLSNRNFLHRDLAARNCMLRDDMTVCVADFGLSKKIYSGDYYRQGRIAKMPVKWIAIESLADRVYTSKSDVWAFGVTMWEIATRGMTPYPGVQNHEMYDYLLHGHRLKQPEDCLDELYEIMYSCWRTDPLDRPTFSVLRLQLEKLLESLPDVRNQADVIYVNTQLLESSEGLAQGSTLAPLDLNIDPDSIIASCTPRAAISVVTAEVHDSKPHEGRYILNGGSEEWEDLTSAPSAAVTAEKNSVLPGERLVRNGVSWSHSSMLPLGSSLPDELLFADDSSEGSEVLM

[4] = Fraction unbound in C57BL/6J mouse implanted with mouse BaF3 cells transfected with MER in at 3 to 100 mg/kg, po bid for 6 days; type: ADME, organism-based; details: in vivo, dose 3-100 mg/kg, time 6 day
BaF3 [5] = test: Antitumour activity against mouse BaF3 cells transfected with MER implanted in C57BL/6J mouse assessed as reduction in tumour growth at 100 mg/kg, po bid for 6 days; type: functional, organism-based; details: time 6.0 day
MC-38 = test: Antitumour activity against mouse MC38 cells implanted in C57BL6 mouse assessed as increase in survival at 100 mg/kg, po bid for 2 weeks co-treatment with anti-PD1 further treated with ionizing radiation; type: functional, organism-based
BaF3 [6] = test: Antitumour activity against mouse BaF3 cells transfected with MER implanted in C57BL/6J mouse assessed as reduction in MER phosphorylation at 30 to 100 mg/kg, po bid for 6 days by western blot analysis; type: functional, organism-based; details: dose 30-100 mg/kg, time 6.0 day
BaF3 [7] = test: Growth inhibition of mouse BaF3 cells transfected with FLT3 assessed as inhibition of cell growth incubated for 72 hrs by Cell-titer-Glo assay; type: functional
BaF3 [8] = test: Antitumour activity against mouse BaF3 cells transfected with AXL implanted in C57BL/6J mouse assessed as reduction in AXL phosphorylation at 30 to 100 mg/kg, po bid for 6 days western blot analysis; type: functional, organism-based; details: dose 30-100 mg/kg, time 6.0 day
BaF3 [9] = test: Growth inhibition of mouse BaF3 cells transfected with AXL assessed as inhibition of cell growth incubated for 72 hrs by Cell-titer-Glo assay; type: functional
BaF3 [10] = test: Growth inhibition of mouse BaF3 cells transfected with Tyro3 assessed as inhibition of cell growth incubated for 72 hrs by Cell-titer-Glo assay; type: functional
[11] = Fraction unbound in C57BL/6J mouse implanted with mouse BaF3 cells transfected with AXL in at 3 to 100 mg/kg, po bid for 6 days; type: ADME, organism-based; details: in vivo, dose 3-100 mg/kg, time 6 day
BaF3 [12] = test: Growth inhibition of mouse BaF3 cells assessed as inhibition of cell growth incubated for 72 hrs by Cell-titer-Glo assay; type: functional
BaF3 [13] = test: Growth inhibition of mouse BaF3 cells transfected with MER assessed as inhibition of cell growth incubated for 72 hrs by Cell-titer-Glo assay; type: functional
BaF3 [14] = test: Antitumour activity against mouse BaF3 cells transfected with AXL implanted in C57BL/6J mouse assessed as reduction in tumour growth at 3 to 100 mg/kg, po bid for 6 days; type: functional, organism-based; details: dose 3-100 mg/kg, time 6.0 day

Row | SMILES | half-life [1] | AUC at 24 h [2] | IC50 [3] | fraction unbound at 144 h [4] | Activity (BaF3 [5]) | Activity (MC-38) | Activity (BaF3 [6]) | GI50 (BaF3 [7]) | Activity (BaF3 [8]) | GI50 (BaF3 [9]) | GI50 (BaF3 [10]) | fraction unbound at 144 h [11] | GI50 (BaF3 [12]) | GI50 (BaF3 [13]) | Activity (BaF3 [14])
1 | Cc1cc(-c2c(C)nn(C)c2C)ccc1-c1nnc(N(C)Cc2ccc3nccn3c2)o1 | 69 h | 295 µM·h | 3.16 nM | – | – | – | – | – | – | – | – | – | – | – | –
2 | Cc1cc(-c2c(C)nn(C)c2C)cnc1-c1nnc(N(C)Cc2ccc3nccn3c2)o1 | – | – | 100 nM | – | – | – | – | – | – | – | – | – | – | – | –
3 | Cc1cc(-c2c(C)nn(C)c2C)cnc1-c1nnc(N(C)Cc2ccc3ncc(-c4ccc(CN(C)C)cc4)n3c2)o1 | – | 71 µM·h | – | 0.076 | Active | Active | Active | 3160 nM | Active | 100 nM | 5010 nM | 0.076 | 3980 nM | 25.1 nM | Active
